Experimental findings from patent US20240116988A1, “ANTI-ROR1 MACROCYCLIC PEPTIDES AND COMPOSITIONS” (BRISTOL-MYERS SQUIBB COMPANY, priority 2022, published 2024) are described below.

This assay deals with T1, human ROR1 (Homo sapiens, UniProt Q01973).
T1 construct: host or cells: HEK 293T cells, Tet-on system induced with doxycycline
The experiment in a line: ROR1 high content cell-based binding assay. Conditions: read-out: ROR1 Binding 293T Human HC Cell Based Assay IC50. As to the method: ROR1 high content cell-based binding assay: Human embryonic kidney 293T cells (293T) expressing human ROR1 with Tet-on system by doxycycline were used (Arctic-488134) for the assessment of inhibition of the binding of fluorescently-labeled competing peptide (“Probe”) that specifically binds to human ROR1. […] Cryopreserved vials were thawed in a 37° C. water bath. Cells were washed in assay culture media [DMEM (Life Technologies Inc. Cat. […] Cat. No. 15140-122) and […] dox] and diluted 1.0×10^5 cells/mL. Cells were seeded into PDL-coated 384 well plates (BD Falcon Cat. No. 356663) at 2,000 cells/20 μL. Plates were allowed to incubate for 10 minutes at room temperature and then transferred to a 37° C./5% CO2 incubator for overnight incubation. The next day, 125 nL of the test compound was added using an ECHO followed by the addition of 5 μL/well of 5-FAM-labeled probe to cells at a final concentration of 30 nM. Sample were incubated for 1 hour at 37° C. for 1 hour, followed by 3 washes in […] of dPBS. Cells were fixed by adding 8% (w/v) formaldehyde (Sigma Cat. No. 252549), 20 μg/mL Hoechst (Thermo Scientific Cat. No. 62249) in PBS for 20 minutes at room temperature. The plates were washed 3 more times in dPBS and 15 μl of PBS was left in the wells following the last wash. The plates were sealed, and data was using obtained using a CellInsight NXT High Content Screening Platform IC903000 (Thermo Scientific).

Positions of bridges follow the written chain, without caps; N, C: chain ends. Non-standard residues stand in square brackets, D forms with d. Residues, ends and D or L forms follow the SMILES beside them. ξ: configuration not given here. NMeF = CN[C@@H](Cc1ccccc1)C(=O)O; ξY = NC(Cc1ccc(O)cc1)C(=O)O; NMeA = CN[C@@H](C)C(=O)O; AEEA = NCCOCCOCC(=O)O; ξL = CC(C)CC(N)C(=O)O

T1 sequence (Q01973 30-937): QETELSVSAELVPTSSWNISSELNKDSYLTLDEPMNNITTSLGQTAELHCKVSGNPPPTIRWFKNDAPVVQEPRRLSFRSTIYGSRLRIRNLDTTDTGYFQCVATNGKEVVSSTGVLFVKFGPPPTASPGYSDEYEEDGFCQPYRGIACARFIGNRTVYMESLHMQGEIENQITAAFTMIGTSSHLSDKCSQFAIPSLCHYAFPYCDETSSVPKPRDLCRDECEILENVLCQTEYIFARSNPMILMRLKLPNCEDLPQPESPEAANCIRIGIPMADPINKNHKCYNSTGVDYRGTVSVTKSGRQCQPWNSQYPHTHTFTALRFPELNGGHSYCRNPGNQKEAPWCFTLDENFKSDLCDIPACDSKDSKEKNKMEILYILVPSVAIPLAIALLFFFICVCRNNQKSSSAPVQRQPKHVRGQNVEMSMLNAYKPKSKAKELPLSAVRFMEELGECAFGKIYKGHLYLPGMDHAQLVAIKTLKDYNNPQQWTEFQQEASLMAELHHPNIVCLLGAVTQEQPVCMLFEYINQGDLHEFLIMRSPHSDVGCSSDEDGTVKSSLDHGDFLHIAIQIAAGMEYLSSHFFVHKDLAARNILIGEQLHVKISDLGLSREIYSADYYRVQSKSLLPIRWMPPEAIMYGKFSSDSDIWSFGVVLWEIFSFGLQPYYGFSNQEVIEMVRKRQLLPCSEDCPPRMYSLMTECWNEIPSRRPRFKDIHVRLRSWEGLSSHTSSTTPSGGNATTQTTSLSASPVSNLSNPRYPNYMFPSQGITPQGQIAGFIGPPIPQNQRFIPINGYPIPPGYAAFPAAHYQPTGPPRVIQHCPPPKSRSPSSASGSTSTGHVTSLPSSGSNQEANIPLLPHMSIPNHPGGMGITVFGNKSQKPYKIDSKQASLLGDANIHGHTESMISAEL

As to `CC(C)C[C@@H]1NC(=O)[C@H](Cc2ccc(O)cc2)NC(=O)[C@H](Cc2ccccc2)NC(=O)CSC[C@@H](C(=O)NCC(N)=O)NC(=O)[C@H](CC(C)C)NC(=O)[C@H](Cc2ccccc2)N(C)C(=O)[C@H](Cc2ccc(O)cc2)NC(=O)[C@H](Cc2c[nH]c3ccccc23)NC(=O)CNC(=O)[C@H](CCCNC(=N)N)NC(=O)[C@H](Cc2ccc(O)cc2)NC(=O)[C@H](C(C)C)NC1=O` [Example 1018] ({CH2CO}-FYLVYRGWY[NMeF]LCG-NH2; thioether N-12), the IC50 turned out to be 30 nM.
The figure for `CC(C)C[C@@H]1NC(=O)[C@H](Cc2ccc(O)cc2)NC(=O)[C@H](Cc2ccccc2)NC(=O)CSC[C@@H](C(=O)NCC(N)=O)NC(=O)[C@H](CC(C)C)NC(=O)[C@H](Cc2ccccc2)N(C)C(=O)[C@H](Cc2ccc(O)cc2)NC(=O)[C@H](Cc2c[nH]c3ccccc23)NC(=O)CNC(=O)[C@@H](C)NC(=O)[C@H](Cc2ccc(O)cc2)NC(=O)[C@H](C(C)C)NC1=O` [Example 1048] ({CH2CO}-FYLVY[dA]GWY[NMeF]LCG-NH2; thioether N-12) is 666 nM.
`CC(C)C[C@@H]1NC(=O)[C@H](CO)NC(=O)[C@H](Cc2ccccc2)N(C)C(=O)CNC(=O)[C@H](Cc2ccc(O)cc2)NC(=O)[C@H](Cc2ccccc2)NC(=O)CSC[C@@H](C(N)=O)NC(=O)[C@H](Cc2c[nH]c3ccccc23)NC(=O)[C@H](Cc2ccc(O)cc2)NC1=O` [Example 1111] ({CH2CO}-FYG[NMeF]SLYWC-NH2; thioether N-9): the IC50 came to 479 nM.
`CC(C)C[C@@H]1NC(=O)[C@H](Cc2ccc(O)cc2)NC(=O)[C@H]([C@@H](C)O)NC(=O)CSC[C@@H](C(=O)NCC(N)=O)NC(=O)[C@H](CC(C)C)NC(=O)[C@H](Cc2ccccc2)N(C)C(=O)[C@H](Cc2ccc(O)cc2)NC(=O)[C@H](Cc2c[nH]c3ccccc23)NC(=O)CNC(=O)[C@H](CO)NC(=O)[C@H](Cc2ccc(O)cc2)NC(=O)[C@H](C(C)C)NC1=O` [Example 1073] ({CH2CO}-TYLVYSGWY[NMeF]LCG-NH2; thioether N-12): the IC50 was determined as 249 nM.
For `CC[C@H](C)[C@@H]1NC(=O)CSC[C@@H](C(=O)NCC(N)=O)NC(=O)[C@H](CC(C)C)NC(=O)[C@H](Cc2ccccc2)N(C)C(=O)[C@H](Cc2ccc(O)cc2)NC(=O)[C@H](Cc2c[nH]c3ccccc23)NC(=O)CNC(=O)[C@H](CO)NC(=O)[C@H](Cc2ccc(O)cc2)NC(=O)[C@H](C(C)C)NC(=O)[C@H](CC(C)C)NC(=O)[C@H](Cc2ccc(O)cc2)NC1=O` [Example 1084] ({CH2CO}-IYLVYSGWY[NMeF]LCG-NH2; thioether N-12), the IC50 is 227 nM.
Consider `CC(C)C[C@@H]1NC(=O)CNC(=O)[C@H](Cc2ccccc2)NC(=O)CSC[C@@H](C(=O)NCC(N)=O)NC(=O)[C@H](CC(C)C)NC(=O)[C@H](Cc2ccccc2)N(C)C(=O)[C@H](Cc2ccc(O)cc2)NC(=O)[C@H](Cc2c[nH]c3ccccc23)NC(=O)CNC(=O)[C@H](CO)NC(=O)[C@H](Cc2ccc(O)cc2)NC(=O)[C@H](C(C)C)NC1=O` [Example 1068] ({CH2CO}-FGLVYSGWY[NMeF]LCG-NH2; thioether N-12), for which the IC50 was determined as 453 nM.
The figure for `CC(C)C[C@@H]1NC(=O)[C@H](Cc2ccc(O)cc2)NC(=O)[C@H](Cc2ccccc2)NC(=O)CSC[C@@H](C(=O)NCC(N)=O)NC(=O)[C@H](C)NC(=O)[C@H](Cc2ccccc2)N(C)C(=O)[C@H](Cc2ccc(O)cc2)NC(=O)[C@H](Cc2c[nH]c3ccccc23)NC(=O)CNC(=O)[C@H](CO)NC(=O)[C@H](Cc2ccc(O)cc2)NC(=O)[C@H](C(C)C)NC1=O` [Example 1042] ({CH2CO}-FYLVYSGWY[NMeF]ACG-NH2; thioether N-12) is 31 nM; for `CC(C)C[C@@H]1NC(=O)[C@H](CC(N)=O)NC(=O)[C@H](Cc2ccccc2)N(C)C(=O)CNC(=O)[C@H](Cc2ccc(O)cc2)NC(=O)[C@H](Cc2ccccc2)NC(=O)CSC[C@@H](C(=O)NCC(N)=O)NC(=O)[C@H](Cc2c[nH]c3ccccc23)NC(=O)[C@H](Cc2ccc(O)cc2)NC1=O` [Example 1118] ({CH2CO}-FYG[NMeF]NLYWCG-NH2; thioether N-9) it is 151 nM.
As for `CC(C)C[C@@H]1NC(=O)[C@H](Cc2ccccc2)N(C)C(=O)[C@H](Cc2ccc(O)cc2)NC(=O)[C@H](Cc2c[nH]c3ccccc23)NC(=O)CNC(=O)[C@H](CO)NC(=O)[C@H](Cc2ccc(O)cc2)NC(=O)[C@H](C(C)C)NC(=O)[C@H](C)NC(=O)[C@H](Cc2ccc(O)cc2)NC(=O)[C@H](Cc2ccccc2)NC(=O)CSC[C@@H](C(=O)NCC(N)=O)NC1=O` [Example 1040] ({CH2CO}-FYAVYSGWY[NMeF]LCG-NH2; thioether N-12), the IC50 is 17 nM.
Take `CC(C)C[C@@H]1NC(=O)[C@H](Cc2ccccc2)NC(=O)CSC[C@@H](C(=O)NCC(N)=O)NC(=O)[C@H](C)NC(=O)[C@H](Cc2c[nH]c3ccccc23)NC(=O)[C@H](Cc2ccccc2)NC(=O)[C@H](Cc2c[nH]c3ccccc23)NC(=O)CNC(=O)[C@H](Cc2ccc(O)cc2)NC(=O)[C@H](CCCNC(=N)N)NC(=O)[C@H](C(C)C)NC(=O)[C@H](Cc2c[nH]c3ccccc23)NC1=O` [Example 1004] ({CH2CO}-FLWVRYGWFWACG-NH2; thioether N-12): the IC50 worked out at 99 nM.
For the compound `CC(C)C[C@@H]1NC(=O)[C@@H](C)NC(=O)[C@H](Cc2ccccc2)N(C)C(=O)CNC(=O)[C@H](Cc2ccc(O)cc2)NC(=O)[C@H](Cc2ccccc2)NC(=O)CSC[C@@H](C(N)=O)NC(=O)[C@H](Cc2c[nH]c3ccccc23)NC(=O)[C@H](Cc2ccc(O)cc2)NC1=O` [Example 1116] ({CH2CO}-FYG[NMeF][dA]LYWC-NH2; thioether N-9), the IC50 worked out at 183 nM.
As to `CC(C)C[C@@H]1NC(=O)[C@H](CC(N)=O)NC(=O)[C@H](Cc2ccccc2)N(C)C(=O)CNC(=O)[C@H](Cc2ccc(O)cc2)NC(=O)[C@H](Cc2ccccc2)NC(=O)CSC[C@@H](C(=O)NCC(N)=O)NC(=O)[C@H](Cc2c[nH]c3ccccc23)NC(=O)[C@H](Cc2ccc(O)cc2)NC1=O` [Example 1100] ({CH2CO}-FYG[NMeF]NLYWCG-NH2; thioether N-9), the IC50 worked out at 121 nM.
Take `CC(C)C[C@@H]1NC(=O)[C@H](Cc2ccc(O)cc2)NC(=O)[C@H](Cc2ccccc2)N(C)C(=O)CSC[C@@H](C(=O)NCC(N)=O)NC(=O)[C@H](CC(C)C)NC(=O)[C@H](Cc2ccccc2)N(C)C(=O)[C@H](Cc2ccc(O)cc2)NC(=O)[C@H](Cc2c[nH]c3ccccc23)NC(=O)CNC(=O)[C@H](CO)NC(=O)[C@H](Cc2ccc(O)cc2)NC(=O)[C@H](C(C)C)NC1=O` [Example 1082] ({CH2CO}-[NMeF]YLVYSGWY[NMeF]LCG-NH2; thioether N-12): the IC50 is 192 nM.
Consider `CC(C)C[C@@H]1NC(=O)[C@H](Cc2ccc(O)cc2)NC(=O)[C@H](Cc2ccccc2)NC(=O)CSC[C@@H](C(=O)NCC(N)=O)NC(=O)[C@H](CC(C)C)NC(=O)[C@H](Cc2ccccc2)N(C)C(=O)C(Cc2ccc(O)cc2)NC(=O)[C@H](Cc2c[nH]c3ccccc23)NC(=O)[C@@H](C)NC(=O)[C@H](CO)NC(=O)[C@H](Cc2ccc(O)cc2)NC(=O)[C@H](C(C)C)NC1=O` (stereo partly drawn) [Example 1059] ({CH2CO}-FYLVYS[dA]W[ξY][NMeF]LCG-NH2; thioether N-12), for which the IC50 was determined as 93 nM.
Take `CC(C)C[C@@H]1NC(=O)[C@H](Cc2ccccc2)N(C)C(=O)[C@H](Cc2ccc(O)cc2)NC(=O)[C@H](Cc2c[nH]c3ccccc23)NC(=O)CNC(=O)[C@H](CO)NC(=O)[C@H](Cc2ccc(O)cc2)NC(=O)[C@H](C(C)C)NC(=O)[C@H](C)N(C)C(=O)[C@H](Cc2ccc(O)cc2)NC(=O)[C@H](Cc2ccccc2)NC(=O)CSC[C@@H](C(=O)NCC(N)=O)NC1=O` [Example 1062] ({CH2CO}-FY[NMeA]VYSGWY[NMeF]LCG-NH2; thioether N-12): the IC50 turned out to be 20 nM.
For the compound `CC(C)C[C@@H]1NC(=O)[C@H](Cc2ccccc2)NC(=O)CSC[C@@H](C(=O)NCCOCCOCC(=O)O)NC(=O)[C@H](C)NC(=O)[C@H](Cc2ccc(O)cc2)NC(=O)[C@H](Cc2ccc(O)cc2)NC(=O)[C@H](Cc2c[nH]c3ccccc23)NC(=O)CNC(=O)[C@H](Cc2ccc(O)cc2)NC(=O)[C@H](CCCNC(=N)N)NC(=O)[C@H](C(C)C)NC(=O)[C@H](Cc2c[nH]c3ccccc23)NC1=O` [Example 1086] ({CH2CO}-FLWVRYGWYYAC[AEEA]-OH; thioether N-12), the IC50 stood at 364 nM.
The figure for `CC(C)C[C@@H]1NC(=O)[C@H](Cc2ccc(O)cc2)NC(=O)[C@H](Cc2ccccc2)NC(=O)CSC[C@@H](C(=O)NCC(N)=O)NC(=O)[C@H](CC(C)C)NC(=O)[C@H](Cc2ccccc2)N(C)C(=O)[C@H](Cc2ccc(O)cc2)NC(=O)[C@H](Cc2c[nH]c3ccccc23)NC(=O)CNC(=O)[C@H](CCCNC(=N)N)NC(=O)CNC(=O)[C@H](C(C)C)NC1=O` [Example 1033] ({CH2CO}-FYLVGRGWY[NMeF]LCG-NH2; thioether N-12) is 768 nM; for `CC(C)CC1NC(=O)[C@H](Cc2ccc(O)cc2)NC(=O)[C@H](Cc2ccccc2)NC(=O)CSC[C@@H](C(=O)NCC(N)=O)NC(=O)[C@H](Cc2ccccc2)N(C)C(=O)[C@H](Cc2ccc(O)cc2)NC(=O)[C@H](Cc2c[nH]c3ccccc23)NC(=O)C(Cc2ccc(O)cc2)NC(=O)[C@H](C(C)C)NC1=O` (stereo partly drawn) [Example 1113] ({CH2CO}-FY[ξL]V[ξY]WY[NMeF]CG-NH2; thioether N-9) it is 100 nM.
